Experimental data from patent US20070110901A1, “Method for identifying weakly binding molecule fragments having ligand properties, whereby the molecule fragments are applied in the form of microdrops of a corresponding solution to the crystal” (Proteros Biostructures GMBH, priority 2003, published 2007).

Columns and labels:
thrombin = test: X-ray crystallography of freely mounted crystal after dripping on picoliter drops (FIG. 4); type: binding; conditions: active center of thrombin around Ser195; 2F0-F0 density outlined at 1σ
Text: FIG. 4: The covalently bound inhibitor as well as individual amino acids in the environment of the active center of the thrombin around Ser195 are depicted in the form of a stick model. Oxygen atoms are depicted in red, sulfur atoms in yellow, nitrogen atoms in blue, and carbon atoms in gray. Additionally, the inhibitor is overlaid by its 2F0-F0 electron density (outlined at 1σ). The inhibitor is clearly defined concerning its electron density.
Thereby, evidence has been offered that the approach of dripping picoliter drops onto a protein crystal by use of the free mounting system works.

[1] = tested on: DPIV (dipeptidyl peptidase IV); test: X-ray crystallography of DPIV crystal treated with inhibitor (FIG. 5); type: binding; conditions: active center of DPIV around Ser630; 2F0-F0 density outlined at 1σ
Text: Oxygen atoms are depicted in red, nitrogen atoms in blue, and carbon atoms in gray. Additionally, the inhibitor as well as Ser630, which is covalently coupled to the inhibitor, is overlaid by its 2F0-F0 electron density (outlined at 1σ). The inhibitor is clearly defined concerning its electron density (FIG. 5).
From the used tripeptide having the sequence Ile-Pro-Ile, the C-terminal isoleucine is cleaved off while the dipeptide remains covalently linked with Ser630 and is not cleaved off.
The target enzyme was DPIV (dipeptidyl peptidase IV). Different fragments were solved in a cocktail together. In a cocktail (i), molecules of two different molecule species were combined, i.e. a mimetic (altered peptide backbone (vinyl derivative) of the N-terminal dipeptide of a substrate of the DPIV (having a free N-terminus) and, on the other hand, a mimetic (also a dipeptide with acetylated, blocked N-terminus, also. as. framework mimetic—vinyl derivative). In a second cocktail (ii), five different molecule species (which differed concerning both side chains of the two dipeptide mimetics) from each of the two mimetic classes, i.e. 10 molecule species altogether, were combined in a cocktail.

Compound	binding seen in experimentally determined electron density (thrombin)	binding mode seen in electron density [1]
O=S(=O)(F)Cc1ccccc1 [PMSF, phenylmethylsulfonyl fluoride]	covalent bond of the PMSF at Ser195	–
diprotin A	–	rather acts as a suicide substrate than as an inhibitor
